Data published in US20240270821A1, “GIP/GLP1/GCG TRI-RECEPTOR AGONISTS AND USES THEREOF” (priority 2023, published 2024).
Read-outs that look alike come from different tables or passages of the source. Starred links: 1 amine or outer side, 2 acyl side, 3 side chain; linkers in the order of their positions; H or OH if unused. Non-standard residues stand in square brackets, D forms with d. Groups on a side chain read outwards from the residue. No end group written: not given here. *: point of attachment. C18 diacid = O=C(O)CCCCCCCCCCCCCCCCC(=O)*; γGlu = O=C(O)[C@H](CCC(=O)[*:2])N[*:1]; αMe4Pal = C[C@](N)(Cc1ccncc1)C(=O)O; αMeY = C[C@](N)(Cc1ccc(O)cc1)C(=O)O; 4Pal = N[C@@H](Cc1ccncc1)C(=O)O; αMeL = CC(C)C[C@](C)(N)C(=O)O; Orn = NCCC[C@H](N)C(=O)O; AEEA = NCCOCCOCC(=O)O; Aib = CC(C)(N)C(=O)O

Legend:
Assay type in all cases: cell-based
hGLP-1R [1] = target: T1, hGLP-1R (Homo sapiens, UniProt P43220); assay: Functional cAMP activity in the presence of 1% HSA; conditions: read-out: cAMP Rel EC50, hGLP-1R
human GcgR = human GcgR (Homo sapiens, UniProt P47871); assay: Functional cAMP activity in the presence of 1% HSA; conditions: read-out: cAMP Rel EC50, hGcgR
hGcgR = hGcgR (Homo sapiens, UniProt P47871); assay: Functional cAMP activation in the presence of 0.1% casein (no HSA); conditions: in the presence of 0.1% casein (no HSA); geometric mean; read-out: Relative cAMP EC50, hGcgR;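 further: intracellular cAMP rise after 30 min at 37 °C, read by HTRF against a cAMP standard curve, scaled from buffer only (0%) to maximal control ligand response (100%)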
hGIPR [2] = target: T2, hGIPR (Homo sapiens, UniProt P48546); assay: Functional cAMP activity in the presence of 1% HSA; conditions: read-out: cAMP Rel EC50, hGIPR
T2 sequence (P48546 22-466): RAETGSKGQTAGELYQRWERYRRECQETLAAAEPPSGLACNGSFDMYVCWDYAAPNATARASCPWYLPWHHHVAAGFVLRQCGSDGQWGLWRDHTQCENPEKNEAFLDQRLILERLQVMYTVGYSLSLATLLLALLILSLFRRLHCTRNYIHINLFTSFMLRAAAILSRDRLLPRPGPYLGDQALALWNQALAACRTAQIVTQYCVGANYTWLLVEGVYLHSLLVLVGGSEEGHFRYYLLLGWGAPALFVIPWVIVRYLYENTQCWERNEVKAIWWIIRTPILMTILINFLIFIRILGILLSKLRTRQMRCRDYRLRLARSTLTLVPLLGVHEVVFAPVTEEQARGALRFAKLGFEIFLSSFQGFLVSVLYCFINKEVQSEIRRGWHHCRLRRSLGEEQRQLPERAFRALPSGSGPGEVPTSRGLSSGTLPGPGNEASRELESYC

hGLP-1R [3] = target: T1, hGLP-1R; assay: Functional cAMP activation in the presence of 0.1% casein (no HSA); conditions: in the presence of 0.1% casein (no HSA); geometric mean; read-out: Relative cAMP EC50, hGLP-1R;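 on Relative cAMP EC50, hGIPR: intracellular cAMP rise after 30 min at 37 °C read by HTRF against a standard curve, scaled between buffer alone (0%) and top control ligand concentration (100%), four-parameter fit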;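 on Relative cAMP EC50, hGLP-1R: intracellular cAMP rise after 30 min at 37 °C read by HTRF, normalized between buffer only (0%) and maximal control ligand (100%), four-parameter variable-slope fit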
hGIPR [4] = target: T2, hGIPR; assay: as above; conditions: in the presence of 0.1% casein (no HSA); geometric mean; read-out: Relative cAMP EC50, hGIPR
[5] = HEK-293 clonal cell line, in the presence of 1% HSA, geometric mean of relative EC50

hGcgR, sequence (P47871 26-477): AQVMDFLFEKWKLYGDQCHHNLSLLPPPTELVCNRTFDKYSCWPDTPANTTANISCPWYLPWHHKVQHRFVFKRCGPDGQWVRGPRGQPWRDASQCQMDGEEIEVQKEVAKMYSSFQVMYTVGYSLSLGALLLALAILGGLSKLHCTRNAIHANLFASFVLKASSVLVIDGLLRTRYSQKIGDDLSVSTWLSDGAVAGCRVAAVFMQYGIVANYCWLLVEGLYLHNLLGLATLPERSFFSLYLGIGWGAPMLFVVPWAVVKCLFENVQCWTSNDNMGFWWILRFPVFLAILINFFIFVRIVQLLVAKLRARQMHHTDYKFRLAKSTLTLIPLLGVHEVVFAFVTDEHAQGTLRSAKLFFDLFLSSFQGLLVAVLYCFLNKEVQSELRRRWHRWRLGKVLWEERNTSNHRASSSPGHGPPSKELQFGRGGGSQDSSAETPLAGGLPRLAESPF
human GcgR, sequence (P47871 26-477): as above
T1 sequence (P43220 24-463): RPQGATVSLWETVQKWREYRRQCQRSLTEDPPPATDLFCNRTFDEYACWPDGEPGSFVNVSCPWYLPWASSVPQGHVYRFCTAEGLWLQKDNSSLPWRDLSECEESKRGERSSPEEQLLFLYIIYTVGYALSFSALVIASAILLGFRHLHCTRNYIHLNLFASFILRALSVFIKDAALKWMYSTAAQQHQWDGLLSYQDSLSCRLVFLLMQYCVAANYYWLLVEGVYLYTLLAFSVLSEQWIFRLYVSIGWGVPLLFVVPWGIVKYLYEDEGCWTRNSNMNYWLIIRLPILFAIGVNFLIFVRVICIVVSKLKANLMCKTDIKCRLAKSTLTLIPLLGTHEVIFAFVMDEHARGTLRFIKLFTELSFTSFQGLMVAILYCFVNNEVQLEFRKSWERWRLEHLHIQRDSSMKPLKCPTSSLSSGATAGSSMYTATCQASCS

| Substance | EC50 (hGLP-1R [1]) [nM] | EC50 (human GcgR) [nM] | EC50 (hGcgR) [nM] | EC50 (hGIPR [2]) [nM] | EC50 (hGLP-1R [3]) [nM] | EC50 (hGIPR [4]) [nM] | EC50 (hGLP-1R [1]; [5]) [nM] | EC50 (human GcgR; [5]) [nM] | EC50 (hGIPR [2]; [5]) [nM] |
| --- | --- | --- | --- | --- | --- | --- | --- | --- | --- |
| Y[Aib]QGTFTSD[4Pal]SQ[αMeL]LDKK([dE-γGlu-dE-C18 diacid])AQ[αMe4Pal]AFIEYLIE[Aib]GPSSGAPPPSGSEE-NH2 [Example 931] | 878 | 2300 | 12.2 | 20.8 | 11.3 | 0.256 |  |  |  |
| Y[Aib]QGTFTSD[4Pal]SQ[αMeL]LDKK([γGlu-dE-dE-C18 diacid])AQ[αMe4Pal]AFIEYLIE[Aib]GPSSGAPPPSGSE-NH2 [Example 926] | 600 | 1380 | 13.2 | 13.5 | 7.71 | 0.166 |  |  |  |
| Y[Aib]QGTFTSD[4Pal]SQ[αMeL]LDKK([γGlu-dE-dE-C18 diacid])AQ[αMe4Pal]AFIEYLIE[Aib]GPSSGAPPPSGSEE-NH2 [Example 930] | 824 | 1700 | 13 | 19.9 | 11 | 0.244 |  |  |  |
| Y[Aib]QGTFTSD[4Pal]SQ[αMeL]LDKK([γGlu-γGlu-C18 diacid])AQ[αMe4Pal]AFIEYLIE[Aib]GPSSGAPPPSGS-NH2 [Example 858] | 258 | 678 | 3.44 | 13.1 | 1.83 | 0.0995 |  |  |  |
| Y[Aib]QGTFTSD[4Pal]SQ[αMeL]LDKK([γGlu-γGlu-C18 diacid])AQ[αMe4Pal]AFIE[αMe4Pal]LIE[Aib]GPSSGAPPPSGEE-NH2 [Example 1121] |  |  | 8.83 |  | 5.23 | 0.115 | 165 | 566 | 4.55 |
| Y[Aib]QGTFTSD[4Pal]SQ[αMeL]LDKK([γGlu-γGlu-C18 diacid])AQ[αMe4Pal]AFIE[αMe4Pal]LIE[Aib]GPSSGAPPPSGSEE-NH2 [Example 1122] |  |  | 10.3 |  | 5.66 | 0.109 | 177 | 474 | 4.54 |
| Y[Aib]QGTFTSD[4Pal]SQ[αMeL]LDKK([γGlu-γGlu-C18 diacid])AQ[αMe4Pal]AFIE[αMe4Pal]LIE[Aib]GPSSGAPPPSGTE-NH2 [Example 1118] | 183 | 802 | 6.52 | 5.45 | 5.42 | 0.128 |  |  |  |
| Y[Aib]QGTFTSD[4Pal]SQ[αMeL]LD[Orn]K([AEEA-γGlu-C18 diacid])AQ[αMe4Pal]AFIE[αMeY]LLEGGPSSGAPPPSGS-NH2 [Example 932] | 249 | 513 | 2.67 | 25 | 1.61 | 0.188 |  |  |  |
| Y[Aib]QGTFTSD[4Pal]SQ[αMeL]LD[Orn]K([AEEA-γGlu-C18 diacid])AQ[αMe4Pal]QFIE[αMeY]LIE[Aib]GPSSGEPPPSGSEE-NH2 [Example 1098] | 184 | 994 | 6.2 | 31.2 | 1.22 | 0.201 |  |  |  |
| Y[Aib]QGTFTSD[4Pal]SQ[αMeL]LD[Orn]K([AEEA-γGlu-γGlu-C18 diacid])AQ[αMe4Pal]AFIEYLIE[dA]GPSSGAPPPSGS-NH2 [Example 1016] | 156 | 626 | 5.57 | 30.6 | 1.55 | 0.218 |  |  |  |
| Y[Aib]QGTFTSD[4Pal]SQ[αMeL]LD[Orn]K([dE-γGlu-C18 diacid])AQ[αMe4Pal]AFIEYLIA[Aib]GPSSGEPPPSGSEE-NH2 [Example 1101] | 246 | 827 | 4.72 | 6.31 | 1.75 | 0.0592 |  |  |  |
| Y[Aib]QGTFTSD[4Pal]SQ[αMeL]LD[Orn]K([dE-γGlu-C18 diacid])AQ[αMe4Pal]AFIQ[αMeY]LLEGGPSSGAPPPSGSEEE-NH2 [Example 1083] | 547 | 1030 | 15 | 20.5 | 7.76 | 0.328 |  |  |  |
| Y[Aib]QGTFTSD[4Pal]SQ[αMeL]LD[Orn]K([dE-γGlu-C18 diacid])AQ[αMe4Pal]QFIE[αMeY]LIAGGPSSGAPPPSGSEEE-NH2 [Example 1081] | 151 | 2130 | 19.7 | 8.44 | 1.29 | 0.105 |  |  |  |
| Y[Aib]QGTFTSD[4Pal]SQ[αMeL]LD[Orn]K([dE-γGlu-C18 diacid])AQ[αMe4Pal]QFIE[αMeY]LIA[Aib]GPSSGEPPPSGSEE-NH2 [Example 1106] | 119 | 1030 | 7.71 | 4.23 | 0.87 | 0.0312 |  |  |  |
| Y[Aib]QGTFTSD[4Pal]SQ[αMeL]LD[Orn]K([γGlu-γGlu-C18 diacid])AQ[αMe4Pal]AFIEYLIAGGPSSGAPPPSGSEE-NH2 [Example 1031] | 152 | 1200 | 6.98 | 17.3 | 1.15 | 0.146 |  |  |  |
| Y[Aib]QGTFTSD[4Pal]SQ[αMeL]LD[Orn]K([γGlu-γGlu-C18 diacid])AQ[αMe4Pal]AFIEYLIE[Aib]GPSSGAPPPSGS-NH2 [Example 935] | 172 | 659 | 4.04 | 16.9 | 1.71 | 0.123 |  |  |  |
| Y[Aib]QGTFTSD[4Pal]SR[αMeL]LDKK([AEEA-γGlu-C18 diacid])AQ[αMe4Pal]AFIEYLIEGGESSGAPPPSGS-NH2 [Example 792] | 619 | 376 | 1.91 | 108 | 2.99 | 0.55 |  |  |  |
| Y[Aib]QGTFTSD[4Pal]SR[αMeL]LDKK([AEEA-γGlu-C18 diacid])AQ[αMe4Pal]AFIE[αMe4Pal]LIEGGPSSGAPPPSGS-NH2 [Example 950] | 328 | 327 | 1.92 | 18.1 | 2.5 | 0.18 |  |  |  |
| Y[Aib]QGTFTSD[4Pal]SR[αMeL]LDKK([AEEA-γGlu-C18 diacid])AQ[αMe4Pal]AFIE[αMeY]LIEGGPSSGAPPPSGS-NH2 [Example 843] | 135 | 367 | 3.41 | 32.8 | 0.874 | 0.334 |  |  |  |
| Y[Aib]QGTFTSD[4Pal]SR[αMeL]LDKK([γGlu-γGlu-C18 diacid])AQ[αMe4Pal]AFIE[αMe4Pal]LIEGGPSSGAPPPSGSEE-NH2 [Example 959] | 503 | 316 | 2.61 | 24.5 | 5.06 | 0.217 |  |  |  |
| Y[Aib]QGTFTSD[4Pal]S[Orn][αMeL]LDKK([γGlu-γGlu-C18 diacid])AQ[Aib]AFIE[αMeY]LLEGGPSSGAPPPSGSEE-NH2 [Example 944] | 985 | 1840 | 6.16 | 37.2 | 4.86 | 0.216 |  |  |  |
